Assays:
[1] = tested on: light-evoked excitatory postsynaptic currents (EPSCs) in lamina I-II outer neurons; assay: Spinal cord slice whole-cell recording of light-evoked EPSCs from ChR2-expressing TRPV1 nociceptors; type: cell-based, mouse
Excerpt: FIG. 4. Opioid-induced spinal long-term potentiation (LTP) is initiated by presynaptic MOR in nociceptors. (a,b) MOR cKO mice crossed with a mouse line expressing Channel-rhodopsin2 (ChR2-eYFP) in a Cre-dependent manner produces expression of ChR2-eYFP in Trpv1^Cre+DRG nociceptor cell bodies and central terminals in the spinal cord dorsal horn. Scale bars=50 m, throughout. (c,d) Blue light-evoked (473 nm, 1.0 mW/cm^2, 0.2 ms, 0.05 Hz) excitatory postsynaptic currents (EPSCs) recorded in laminae I and II outer spinal neurons in slices from MOR cKO and littermate controls. Numbered inset traces correspond to individual EPSCs before, during, and after wash-out of bath applied DAMGO (500 nM; 5 min duration). Scale bar=100 pA, 10 ms. (c) DAMGO-induced depression of EPSC amplitude and rebound LTP after washout (Control+LTP; n=8/15 neurons) in control slices. […] Error bars are mean±SEM.
Adult mice (6-8 weeks old) were anesthetized with isoflurane, decapitated, and the vertebral column was rapidly removed and placed in oxygenated ice-cold dissection solution (in mM: 95 NaCl, 2.5 KCl, 1.25 NaH2PO4, 26 NaHCO3, 50 sucrose, 25 glucose, 6 MgCl2, 1.5 CaCl2, and 1 kynurenic acid, pH 7.4, 320 mOsm). The lumbar spinal cord was isolated, embedded in a 3% agarose block, and transverse slices (400 Lm thick) were made using a vibrating microtome (Leica V T 1200S). Slices were incubated in oxygenated recovery solution (in mM: 125 NaCl, 2.5 KCl, 1.25 NaH2PO4, 26 NaHCO3, 25 glucose, 6 MgCl2, and 1.5 CaCl2, pH 7.4, 320 mOsm) at 35° C. for 1 hour before recording. Patch-clamp recording in whole-cell configuration was performed at 32° C. on lamina I or lamina II outer zone neurons visualized with an Olympus microscope (BX51WI age-MTI). Slices were perfused at ˜2 ml/min with recording solution (in mM: 125 NaCl, 2.5 KCl, 1.25 NaH2PO4, 26 NaHCO3, 25 glucose, 1 MgCl2, 2 CaCl2, pH 7.4, 320 mOsm). Recordings were performed in voltage-clamp mode at a holding potential of −70 mV. Thick-walled borosilicate pipettes, having a resistance of 3-6 MOhm, were filled with internal solution (in mM: 120 potassium gluconate, 20 KCl, 2 MgCl2, 5 MgATP, 0.5 NaGTP, 20 HEPES, 0.5 EGTA, PH 7.25 with KOH, ˜300 mOsm). All data were acquired using a Multiclamp 700B amplifier and pClamp10 software (Molecular Devices). Sampling rate was 10 kHz and data were filtered at 2 kHz. Analysis of eEPSC peak amplitudes was done with Clampfit software (pClamp10, Molecular Devices). Graphs and statistical analysis were generated with Igor Pro (Wave Metrics).
To isolate the TRPV1 nociceptor mediated EPSCs, we crossed the TRPV1-Cre mice with Ai32 mice (Rosa-CAG-LSL-ChR2(H134R)-EYFP-WPRE) (Bardoni et al., 2014) to limit the channelrhodopsin 2 expression specifically to TRPV1 primary afferents. […]

[2] = tested on: wild-type control and global MOR KO mice; assay: Chronic morphine analgesic tolerance and OIH in wild-type control and global MOR KO mice (thermal tail immersion); type: in vivo, mouse
Experimental: These treatments were given for 6 days (Days 2-7). […] (b) Untransformed, raw sensory threshold scores for same data presented in FIG. 1, panels a and b. n=6 for all groups. ★ P<0.05. Error bars are±SEM.
(§1) The tail-immersion test was used to evaluate thermal reflexive hypersensitivity (Woolf, 1984) with the temperature of the water bath being set to 48-52.5° C. The mouse was gently restrained and 2 cm of the tip of the tail was submerged in the water bath, and the latency (seconds) to reflexively withdraw the tail from the water was recorded as a positive nociceptive reflex response. A maximal cut-off of 45-60 s was set to prevent tissue damage.

[3] = tested on: MOR cKO mice and littermate controls; assay: Acute morphine antinociception in MOR cKO mice and littermate controls (von Frey, tail immersion, hotplate); type: in vivo, mouse
Excerpt: (§2) To evaluate mechanical reflexive hypersensitivity (Weibel et al., 2013), we used a logarithmically increasing set of 8 von Frey filaments (Stoelting), ranging in gram force from 0.007 to 6.0 g. These were applied perpendicular to the plantar hindpaw with sufficient force to cause a slight bending of the filament. A positive response was characterized as a rapid withdrawal of the paw away from the stimulus filament within 4 s. Using the up-down statistical method (Solway et al., 2011), the 50% withdrawal mechanical threshold scores were calculated for each mouse and then averaged across the experimental groups.

[4] = tested on: MOR cKO mice and littermate controls; assay: 10 day chronic morphine schedule: antinociceptive tolerance and OIH in MOR cKO mice and littermate controls; type: in vivo, mouse; settings: 10 mg/kg subcutaneous once daily for 10 days
Experimental: Nociceptive behavior (pre-morphine BL timepoints only): von Frey: F1, 30=9.863, P=0.004; tail immersion: F1, 30=0.7311; hotplate: F1, 30=[…]. Antinociception (post-morphine+30 min timepoints only): von Frey: F1, 30=4.812, P=0.0367; tail immersion: F1, 30=19.74, P<0.0001; hotplate: F1, 30=17.23, P=0.0004. […] Control, n=19; MOR cKO, n=13. BL=baseline. […] Repeated Measures Two-way ANOVA+Bonferroni (a,d,g and left panels of b,c,e,f,h,i). ★ P<0.05. Error bars are mean±SEM. Overlaid points are individual animal scores. BL=baseline.
as §1
The hotplate test was used to evaluate thermal-induced affective-motivational responses (Woolf, 1984) with the plate temperature being set to 50-52.5° C.). Mice were place on the plate and the latency (seconds) to the first appearance of an attending response (lick and/or bite at one or both hindpaws) was recorded as a positive affective-motivational response. A maximal cut-off of 45 s was set to prevent tissue damage.
Next the development of morphine antinociceptive tolerance and OIH in MOR cKO mice was evaluated. […] We measured thermal and mechanical nociceptive thresholds, and affective-motivational responses to noxious thermal stimuli prior to, and 30 min after, each daily injection, to evaluate OIH and tolerance, respectively (FIG. 3, panels a, d, g).

wild-type C57Bl/6J mice = assay: Morphine and MNB combination in wild-type mice: nociceptive reflexes, affective-motivational behaviors, tolerance and OIH; type: in vivo, mouse
Experimental: (a) Temporal raster plot of nociception-induced sensory-reflexive and affective-motivational behaviors in an inescapable noxious environment (enclosed 52.5° C. hotplate). […] MNB doses 0.0-1.0 mg/kg, n=10; MNB 10 mg/kg, n=7 for reflexive tests and n=5 for affective-motivational tests. Best-fit lines were generated following non-linear regression analysis based on the % MPE for each mouse. One-way ANOVA+Bonferroni (left panels of b,d,f-k). ★ P<0.05. Error bars are mean±SEM. Overlaid points are individual animal scores. PID=post-injury day.
(b) Visual depiction of reflexive paw flinching behavior. (c) Latencies to the first paw flinch. (d) Number of paw flinches (see FIG. 17). (e) Visual depiction of hindpaw guarding behavior. (f) Latency to the first onset of hindpaw guarding. (g) Total duration of time spent engaged in hindpaw guarding. (h) Visual depiction of hindpaw attending. (i) Latency to the first onset of hindpaw attending. (j) Total duration of time spent engaging in hindpaw attending. (k) Visual depiction of escape jumping behavior. (1) Latency to the first jump. […] (m) Number of escape jumps. […] Error bars are±SEM.
Repeated Measures 2-way ANOVA+Bonferonni. ★ P<0.05. Error bars are mean±SEM.
as §2
(§3) To evaluate affective-motivational responses to an acute, focal thermal stimulus (Madisen et al., 2012), we applied either a single, unilateral 50 μl drop of 55° C. water or acetone (evaporative cooling) to the left hindpaw, and the duration of attending behavior was collected for up to 30 seconds after the stimulation. Only one stimulation per thermal drop was applied on a given testing session, in order to prevent behavioral sensitization that can result from multiple noxious stimulations and then averaging those responses.
To evaluate affective-motivational responses to a sustained, inescapable noxious thermal stimulus, mice were placed on a 52.5° C. hot plate for 45 seconds. A high-speed camera (on the side, level with the hot plate floor) was used to capture the movement, speed, velocity, and detailed reflexive and affective-motivational behaviors of the mice, as described above.
As opposed to the standard hot-plate test, all behaviors such as reflexive paw flinching (rapid flicking of the limb), paw attending (directed licking of the limb), paw guarding (intentional lift protection of the limb), and escape jumping for the duration of the trial were scored. This allowed the analysis of the high-speed videos, blinded to plate temperature or treatment, for the total time spent engaging in affective-motivational behaviors and the number of nociceptive reflexives, as opposed to the traditional metric of merely determining the latency to the first reflexive response.

[5] = tested on: mice with tibia fracture and bone pinning; settings: morphine alone 10 mg/kg
Excerpt: (§4) Error bars are mean±SEM. Overlaid points are individual animal scores. PID=post-injury day.
as §4, §2, §3

[6] = tested on: mice with chronic constriction injury (CCI) of the sciatic nerve; settings: CCI + morphine alone 10 mg/kg
Excerpt: as §4, §2, §3

laxation responses = settings: subcutaneous MNB 5, 12.5 or 20 mg; clinical; cited from earlier work
[7] = subcutaneous morphine 10 mg/kg, acute

Structure (SMILES): C[C@@H](NC(=O)[C@@H](N)Cc1ccc(O)cc1)C(=O)NCC(=O)N(C)[C@@H](Cc1ccccc1)C(=O)NCCO [DAMGO, [D-Ala^2, N-MePhe^4, Gly-ol^5]-enkephalin]
- EPSC amplitude during DAMGO ([1]; MOR cKO slices, 9 out of 9 neurons, 500 nM): 98±8.12 % of control
- EPSC amplitude after DAMGO-washout ([1]; MOR cKO slices, 9 out of 9 neurons, after washout of 500 nM): 96.2±11.9%
- EPSC amplitude after washout (LTP) ([1]; control slices, 8 out of 15 neurons, thirty minutes after washout of 500 nM): 142.2±6.1 % of control
- depression of light-evoked EPSCs ([1]; control slices, all 15 recorded neurons, 500 nM bath application, at 5 min of application): 52±10.5 % inhibition

Structure (SMILES): CN1CC[C@]23c4c5ccc(O)c4O[C@H]2[C@@H](O)C=C[C@H]3[C@H]1C5.O=S(=O)(O)O [morphine, Morphine sulfate]
- OIH ([2]; global MOR KO mice, twice daily escalating 10 to 40 mg/kg schedule): no OIH
- analgesic tolerance and OIH ([2]; wild-type mice, chronic morphine, fixed once daily 10 mg/kg or twice daily escalating 10 to 40 mg/kg, subcutaneous): significant tolerance and OIH
- reflexive or affective-motivational antinociception ([3]; MOR cKO mice, acute intrathecal 1 μg): did not produce significant reflexive or affective-motivational antinociception
- reflexive and affective-motivational antinociception ([3]; MOR cKO mice, subcutaneous 10 mg/kg): maximal reflexive and affective-motivational antinociception
- antinociception ([3]; control mice, acute intrathecal 1 μg): robust antinociception
- OIH for thermal and mechanical stimuli ([4]; MOR cKO mice vs controls): significantly less OIH than controls
- morphine antinociception over chronic treatment (tolerance) ([4]; MOR cKO mice): retained near full antinociceptive efficacy
- morphine antinociception over chronic treatment (tolerance) ([4]; littermate controls): progressively diminished
- antinociceptive tolerance and OIH, reflexive and affective-motivational measures (wild-type C57Bl/6J mice; morphine alone 10 mg/kg once daily for 7 days, Day 7 compared to Day 1): robust antinociceptive tolerance and OIH
- affective-motivational behaviors (wild-type C57Bl/6J mice; [7]): effective at alleviating affective-motivational behaviors
- nociceptive reflexes (wild-type C57Bl/6J mice; [7]): significantly reduce nociceptive reflexes
- reduction of nociceptive or affective-motivational orthotrauma pain after chronic treatment ([5]; after 7 days of chronic treatment): no longer effective
- antinociception, acute ([5]; first administration): acutely produced antinociception
- OIH [6]: No indications of OIH

Structure (SMILES): C[N@+]1(CC2CC2)CC[C@]23c4c5ccc(O)c4O[C@H]2C(=O)CC[C@@]3(O)[C@H]1C5 [MNB, methylnaltrexone bromide]
- dose-response of MNB effect on morphine tolerance, latency to nociceptive reflexes (paw flinch) (wild-type C57Bl/6J mice; 45 s 52.5° C. hot plate, morphine 10 mg/kg + MNB 0.1-10.0 mg/kg): bell-shaped dose-response curve
- effect of MNB on morphine antinociceptive effects (wild-type C57Bl/6J mice; MNB 0.1-10.0 mg/kg combined with morphine): did not alter morphine antinociceptive effects
- onset of morphine antinociceptive tolerance and OIH, 10-day treatment (wild-type C57Bl/6J mice; MNB 1 or 10 mg/kg + morphine for 10 days, von Frey and 52.5° C. hotplate): prevents the onset of morphine antinociceptive tolerance and OIH
- onset of tolerance and OIH (wild-type C57Bl/6J mice; morphine 10 mg/kg + MNB 0.1-10.0 mg/kg once daily for 7 days): dose-dependently prevents the onset of morphine antinociceptive tolerance and OIH
- laxation responses, percentage of responders (laxation responses): higher percentage of responders after 5 or 12.5 mg subcutaneous MNB compared to a 20 mg dose
